Data as given in patent US20250230193A1, “CYCLIC COMPOUND HAVING SELECTIVE KRAS INHIBITORY EFFECT ON HRAS AND NRAS” (CHUGAI SEIYAKU KABUSHIKI KAISHA, priority 2022, published 2025).

How the values were obtained:
[1] = target: GDP-bound HRAS wild-type protein (Homo sapiens, UniProt P01112); assay: Binding to HRAS by surface plasmon resonance (SPR), Single Cycle Kinetics; details: KD ratio HRAS/KRAS, SPR
[2] = target: GDP-bound NRAS wild-type protein (Homo sapiens, UniProt P01111); assay: Binding to NRAS by surface plasmon resonance (SPR), Single Cycle Kinetics; details: KD ratio NRAS/KRAS, SPR
Chain of GDP-bound NRAS wild-type protein (P01111 whole entry): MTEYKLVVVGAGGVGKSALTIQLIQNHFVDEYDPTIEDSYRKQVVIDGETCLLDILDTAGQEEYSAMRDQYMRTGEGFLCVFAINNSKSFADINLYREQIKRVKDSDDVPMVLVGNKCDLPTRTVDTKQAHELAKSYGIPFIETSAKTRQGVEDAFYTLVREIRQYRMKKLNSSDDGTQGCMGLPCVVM

Chain of GDP-bound HRAS wild-type protein (P01112 whole entry): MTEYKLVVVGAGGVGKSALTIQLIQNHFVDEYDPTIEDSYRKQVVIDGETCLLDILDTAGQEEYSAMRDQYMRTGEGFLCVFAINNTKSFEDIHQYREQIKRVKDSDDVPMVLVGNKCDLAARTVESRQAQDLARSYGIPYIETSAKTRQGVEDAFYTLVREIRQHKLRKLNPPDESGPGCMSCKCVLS

CC[C@H](C)[C@@H]1NC(=O)[C@H](CC(C)C)N(C)C(=O)C[C@@H](C(=O)N2CCOCC2)N(C)C(=O)[C@H](C2CCCC2)N(C)C(=O)C2(CCCC2)NC(=O)[C@@H]2CCCN2C(=O)[C@H](CCc2ccc(C(F)(F)F)c(Cl)c2)NC(=O)CN(C)C(=O)[C@H](Cc2ccc(C(F)(F)F)cc2)N2CC/C=C\C[C@@H](C2=O)N(C)C(=O)CN(C)C1=O [PP0463]
HRAS/KRAS (ratio of KD value with respect to GDP-bound HRAS wild-type protein to KD value with respect to KRAS) [1]: A (a compound having 10 or more and less than 20 is denoted as A)
NRAS/KRAS (ratio of KD value with respect to GDP-bound NRAS wild-type protein to KD value with respect to KRAS) [2]: A (a compound having 10 or more and less than 20 is denoted as A)

CC[C@H](C)[C@@H]1NC(=O)[C@H](CC(C)C)N(C)C(=O)C[C@@H](C(=O)N(C)C)N(C)C(=O)[C@H](C2CCCC2)N(C)C(=O)C2(CCCC2)NC(=O)[C@@H]2CC(F)(F)CN2C(=O)[C@H](CCc2cc(F)c(C(F)(F)F)c(F)c2)NC(=O)CN(C)C(=O)[C@H](Cc2ccc(C(F)(F)F)cc2)N2CCCCC[C@@H](C2=O)N(C)C(=O)CN(C)C1=O [PP0465]
HRAS/KRAS (ratio of KD value with respect to GDP-bound HRAS wild-type protein to KD value with respect to KRAS) [1]: B (a compound having 3 or more and less than 10 is denoted as B)
NRAS/KRAS (ratio of KD value with respect to GDP-bound NRAS wild-type protein to KD value with respect to KRAS) [2]: B (a compound having 3 or more and less than 10 is denoted as B)

CC[C@H](C)[C@@H]1NC(=O)[C@H](CC(C)C)N(C)C(=O)C[C@@H](C(=O)N(C)C)N(C)C(=O)[C@H](C2CCCC2)N(C)C(=O)C2(CCC2)NC(=O)[C@@H]2CC(F)(F)CN2C(=O)[C@H](CCc2cc(F)c(C(F)(F)F)c(F)c2)NC(=O)CN(C)C(=O)[C@H](Cc2ccc(C(F)(F)F)cc2)N2CCCCC[C@@H](C2=O)N(C)C(=O)CN(C)C1=O [PP0466]
HRAS/KRAS (ratio of KD value with respect to GDP-bound HRAS wild-type protein to KD value with respect to KRAS) [1]: B (a compound having 3 or more and less than 10 is denoted as B)
NRAS/KRAS (ratio of KD value with respect to GDP-bound NRAS wild-type protein to KD value with respect to KRAS) [2]: B (a compound having 3 or more and less than 10 is denoted as B)

CCO[C@@H]1C[C@H]2C(=O)NC3(CCC3)C(=O)N(C)[C@@H](C3CCCC3)C(=O)N(C)[C@H](C(=O)N3CCOCC3)CC(=O)N(C)[C@@H](CC(C)C)C(=O)N[C@@H]([C@@H](C)CC)C(=O)N(C)CC(=O)N(C)[C@H]3CCCCCN(C3=O)[C@@H](Cc3ccc(C(F)(F)F)cc3)C(=O)N(C)CC(=O)N[C@@H](CCc3cc(F)c(C(F)(F)F)c(F)c3)C(=O)N2C1 [PP0467]
HRAS/KRAS (ratio of KD value with respect to GDP-bound HRAS wild-type protein to KD value with respect to KRAS) [1]: B (a compound having 3 or more and less than 10 is denoted as B)
NRAS/KRAS (ratio of KD value with respect to GDP-bound NRAS wild-type protein to KD value with respect to KRAS) [2]: B (a compound having 3 or more and less than 10 is denoted as B)

CCO[C@@H]1C[C@H]2C(=O)NC3(CCCC3)C(=O)N(C)[C@@H](C3CCCC3)C(=O)N(C)[C@H](C(=O)N(C)C)CC(=O)N(C)[C@@H](CC(C)C)C(=O)N[C@@H]([C@@H](C)CC)C(=O)N(C)CC(=O)N(C)[C@H]3CCCCCN(C3=O)[C@@H](Cc3ccc(C(F)(F)F)cc3)C(=O)N(C)CC(=O)N[C@@H](CCc3cc(F)c(C(F)(F)F)c(F)c3)C(=O)N2C1 [PP0468]
HRAS/KRAS (ratio of KD value with respect to GDP-bound HRAS wild-type protein to KD value with respect to KRAS) [1]: B (a compound having 3 or more and less than 10 is denoted as B)
NRAS/KRAS (ratio of KD value with respect to GDP-bound NRAS wild-type protein to KD value with respect to KRAS) [2]: B (a compound having 3 or more and less than 10 is denoted as B)

CCO[C@@H]1C[C@H]2C(=O)NC3(CCC3)C(=O)N(C)[C@@H](C3CCCC3)C(=O)N(C)[C@H](C(=O)N(C)C)CC(=O)N(C)[C@@H](CC(C)C)C(=O)N[C@@H]([C@@H](C)CC)C(=O)N(C)CC(=O)N(C)[C@H]3CCCCCN(C3=O)[C@@H](Cc3ccc(C(F)(F)F)cc3)C(=O)N(C)CC(=O)N[C@@H](CCc3cc(F)c(C(F)(F)F)c(F)c3)C(=O)N2C1 [PP0469]
HRAS/KRAS (ratio of KD value with respect to GDP-bound HRAS wild-type protein to KD value with respect to KRAS) [1]: B (a compound having 3 or more and less than 10 is denoted as B)
NRAS/KRAS (ratio of KD value with respect to GDP-bound NRAS wild-type protein to KD value with respect to KRAS) [2]: B (a compound having 3 or more and less than 10 is denoted as B)

CC[C@H](C)[C@@H]1NC(=O)[C@H](C)N(C)C(=O)C[C@@H](C(=O)N(C)C)N(C)C(=O)[C@H](C2CCCC2)N(C)C(=O)C2(CCC2)NC(=O)[C@@H]2CCCN2C(=O)[C@H](CCc2cc(F)c(C(F)(F)F)c(F)c2)NC(=O)CN(C)C(=O)[C@H](Cc2ccc(C(F)(F)F)cc2)N2CCCCC[C@@H](C2=O)N(C)C(=O)CN(C)C1=O [PP0470]
HRAS/KRAS (ratio of KD value with respect to GDP-bound HRAS wild-type protein to KD value with respect to KRAS) [1]: B (a compound having 3 or more and less than 10 is denoted as B)
NRAS/KRAS (ratio of KD value with respect to GDP-bound NRAS wild-type protein to KD value with respect to KRAS) [2]: B (a compound having 3 or more and less than 10 is denoted as B)

CC[C@H](C)[C@@H]1NC(=O)[C@H](C)N(C)C(=O)C[C@@H](C(=O)N2CCOCC2)N(C)C(=O)[C@H](C2CCCC2)N(C)C(=O)C2(CCC2)NC(=O)[C@@H]2CC(F)(F)CN2C(=O)[C@H](CCc2cc(F)c(C(F)(F)F)c(F)c2)NC(=O)CN(C)C(=O)[C@H](Cc2ccc(C(F)(F)F)cc2)N2CCCCC[C@@H](C2=O)N(C)C(=O)CN(C)C1=O [PP0471]
HRAS/KRAS (ratio of KD value with respect to GDP-bound HRAS wild-type protein to KD value with respect to KRAS) [1]: B (a compound having 3 or more and less than 10 is denoted as B)
NRAS/KRAS (ratio of KD value with respect to GDP-bound NRAS wild-type protein to KD value with respect to KRAS) [2]: B (a compound having 3 or more and less than 10 is denoted as B)

CC[C@H](C)[C@@H]1NC(=O)[C@H](C)N(C)C(=O)C[C@@H](C(=O)N(C)C)N(C)C(=O)[C@H](C2CCCC2)N(C)C(=O)C2(CCCC2)NC(=O)[C@@H]2CC(F)(F)CN2C(=O)[C@H](CCc2cc(F)c(C(F)(F)F)c(F)c2)NC(=O)CN(C)C(=O)[C@H](Cc2ccc(C(F)(F)F)cc2)N2CCCCC[C@@H](C2=O)N(C)C(=O)CN(C)C1=O [PP0472]
HRAS/KRAS (ratio of KD value with respect to GDP-bound HRAS wild-type protein to KD value with respect to KRAS) [1]: B (a compound having 3 or more and less than 10 is denoted as B)
NRAS/KRAS (ratio of KD value with respect to GDP-bound NRAS wild-type protein to KD value with respect to KRAS) [2]: B (a compound having 3 or more and less than 10 is denoted as B)

CC[C@H](C)[C@@H]1NC(=O)[C@H](C)N(C)C(=O)C[C@@H](C(=O)N(C)C)N(C)C(=O)[C@H](C2CCCC2)N(C)C(=O)C2(CCC2)NC(=O)[C@@H]2CC(F)(F)CN2C(=O)[C@H](CCc2cc(F)c(C(F)(F)F)c(F)c2)NC(=O)CN(C)C(=O)[C@H](Cc2ccc(C(F)(F)F)cc2)N2CCCCC[C@@H](C2=O)N(C)C(=O)CN(C)C1=O [PP0473]
HRAS/KRAS (ratio of KD value with respect to GDP-bound HRAS wild-type protein to KD value with respect to KRAS) [1]: C (A compound having a KD ratio of 0.1 or more and less than 3 is denoted as C)
NRAS/KRAS (ratio of KD value with respect to GDP-bound NRAS wild-type protein to KD value with respect to KRAS) [2]: C (A compound having a KD ratio of 0.1 or more and less than 3 is denoted as C)

CCO[C@@H]1C[C@H]2C(=O)NC3(CCC3)C(=O)N(C)[C@@H](C3CCCC3)C(=O)N(C)[C@H](C(=O)N3CCOCC3)CC(=O)N(C)[C@@H](C)C(=O)N[C@@H]([C@@H](C)CC)C(=O)N(C)CC(=O)N(C)[C@H]3CCCCCN(C3=O)[C@@H](Cc3ccc(C(F)(F)F)cc3)C(=O)N(C)CC(=O)N[C@@H](CCc3cc(F)c(C(F)(F)F)c(F)c3)C(=O)N2C1 [PP0474]
HRAS/KRAS (ratio of KD value with respect to GDP-bound HRAS wild-type protein to KD value with respect to KRAS) [1]: B (a compound having 3 or more and less than 10 is denoted as B)
NRAS/KRAS (ratio of KD value with respect to GDP-bound NRAS wild-type protein to KD value with respect to KRAS) [2]: B (a compound having 3 or more and less than 10 is denoted as B)

CCO[C@@H]1C[C@H]2C(=O)NC3(CCCC3)C(=O)N(C)[C@@H](C3CCCC3)C(=O)N(C)[C@H](C(=O)N(C)C)CC(=O)N(C)[C@@H](C)C(=O)N[C@@H]([C@@H](C)CC)C(=O)N(C)CC(=O)N(C)[C@H]3CCCCCN(C3=O)[C@@H](Cc3ccc(C(F)(F)F)cc3)C(=O)N(C)CC(=O)N[C@@H](CCc3cc(F)c(C(F)(F)F)c(F)c3)C(=O)N2C1 [PP0475]
HRAS/KRAS (ratio of KD value with respect to GDP-bound HRAS wild-type protein to KD value with respect to KRAS) [1]: B (a compound having 3 or more and less than 10 is denoted as B)
NRAS/KRAS (ratio of KD value with respect to GDP-bound NRAS wild-type protein to KD value with respect to KRAS) [2]: B (a compound having 3 or more and less than 10 is denoted as B)

CCO[C@@H]1C[C@H]2C(=O)NC3(CCC3)C(=O)N(C)[C@@H](C3CCCC3)C(=O)N(C)[C@H](C(=O)N(C)C)CC(=O)N(C)[C@@H](C)C(=O)N[C@@H]([C@@H](C)CC)C(=O)N(C)CC(=O)N(C)[C@H]3CCCCCN(C3=O)[C@@H](Cc3ccc(C(F)(F)F)cc3)C(=O)N(C)CC(=O)N[C@@H](CCc3cc(F)c(C(F)(F)F)c(F)c3)C(=O)N2C1 [PP0476]
HRAS/KRAS (ratio of KD value with respect to GDP-bound HRAS wild-type protein to KD value with respect to KRAS) [1]: B (a compound having 3 or more and less than 10 is denoted as B)
NRAS/KRAS (ratio of KD value with respect to GDP-bound NRAS wild-type protein to KD value with respect to KRAS) [2]: B (a compound having 3 or more and less than 10 is denoted as B)

CC[C@H](C)[C@@H]1NC(=O)[C@H](CC(C)C)N(C)C(=O)C[C@@H](C(=O)N2CCOCC2)N(CC)C(=O)[C@H](C2CCCC2)N(C)C(=O)C2(CCCC2)NC(=O)[C@@H]2CCCN2C(=O)[C@H](CCc2cc(F)c(C(F)(F)F)c(F)c2)NC(=O)CN(C)C(=O)[C@H](Cc2ccc(C(F)(F)F)cc2)N2CCCCC[C@@H](C2=O)N(C)C(=O)CN(C)C1=O [PP0477]
HRAS/KRAS (ratio of KD value with respect to GDP-bound HRAS wild-type protein to KD value with respect to KRAS) [1]: A (a compound having 10 or more and less than 20 is denoted as A)
NRAS/KRAS (ratio of KD value with respect to GDP-bound NRAS wild-type protein to KD value with respect to KRAS) [2]: A (a compound having 10 or more and less than 20 is denoted as A)

CC[C@H](C)[C@@H]1NC(=O)[C@H](CC(C)C)N(C)C(=O)C[C@@H](C(=O)N2CCOCC2)NC(=O)[C@H](C2CCCC2)N(C)C(=O)C2(CCCC2)NC(=O)[C@@H]2CCCN2C(=O)[C@H](CCc2cc(F)c(C(F)(F)F)c(F)c2)NC(=O)CN(C)C(=O)[C@H](Cc2ccc(C(F)(F)F)cc2)N2CCCCC[C@@H](C2=O)N(C)C(=O)CN(C)C1=O [PP0479]
HRAS/KRAS (ratio of KD value with respect to GDP-bound HRAS wild-type protein to KD value with respect to KRAS) [1]: B (a compound having 3 or more and less than 10 is denoted as B)
NRAS/KRAS (ratio of KD value with respect to GDP-bound NRAS wild-type protein to KD value with respect to KRAS) [2]: B (a compound having 3 or more and less than 10 is denoted as B)
